We go through one compound from patent US6881419B2, “Vitamin formulation for enhancing bone strength” (priority 2002, dated 2005).

The series concerns osteoporosis. The series can be described thus: Case Study-1: bone scan, tolerability and energy in a subject with osteoporosis and rheumatoid arthritis. Particulars: person, placed on it at diagnosis of osteoporosis.

Excerpt: The exemplary case studies utilize subjects ranging from fifty-one (51) to eighty-three (83) years of age.

Consider `NCCCC(O)(P(=O)([O-])O)P(=O)(O)O.[Na+]` [Fosimex], for which the “Tolerability (stomach problems which developed into an ulcer)” value was “unable to tolerate”.
